The source made the active and inactive calls. The calls are words filed in the database; no cut-off is given here.
Legend:
MDA-MB-231 [1] = experiment: Antiproliferative activity against human MDA-MB-231 cells assessed as inhibition of cell growth measured after 48 hrs by MTT assay; type: functional, cell-based; details: MDA-MB-231, 48 h
A549 = experiment: Antiproliferative activity against human A549 cells assessed as inhibition of cell growth measured after 48 hrs by MTT assay; type: functional, cell-based; details: A549, 48 h
HCT-116 = experiment: Antiproliferative activity against human HCT-116 cells assessed as inhibition of cell growth measured after 48 hrs by MTT assay; type: functional, cell-based; details: HCT-116, 48 h
MCF7 = experiment: Antiproliferative activity against human MCF7 cells assessed as inhibition of cell growth measured after 48 hrs by MTT assay; type: functional, cell-based; details: MCF7, 48 h
MDA-MB-231 [2] = experiment: Antiproliferative activity against human MDA-MB-231 cells assessed as inhibition of cell growth measured after 48 hrs in presence of 7-(diethylamino)-2-oxo-2H-chromene-3-carboxylic acid by MTT assay; type: functional, cell-based; details: MDA-MB-231, 48 h
[3] = Cytotoxicity against human MCF-10A cells assessed as inhibition in cell growth measured after 48 hrs by MTT assay; type: toxicity, cell-based
MDA-MB-231 [4] = experiment: Antiproliferative activity against human MDA-MB-231 cells assessed as effect on NO level at 25 uM incubated for 2 hrs; type: functional, cell-based
[5] = Cytotoxicity against human L02 cells assessed as inhibition in cell growth measured after 48 hrs by MTT assay; type: toxicity, cell-based
[6] = Selectivity index, ratio of IC50 for cytotoxicity against human MCF-10A cells to IC50 for antiproliferative activity against human MDA-MB-231 cells; type: toxicity, cell-based; details: MCF-10A cells versus MDA-MB-231 cells, read-out: Ratio IC50
[7] = Selectivity index, ratio of IC50 for cytotoxicity against human L02 cells to IC50 for antiproliferative activity against human MDA-MB-231 cells; type: toxicity, cell-based; details: L02 cells versus MDA-MB-231 cells, read-out: Ratio IC50
MDA-MB-231 [8] = experiment: Induction of apoptosis in human MDA-MB-231 cells assessed as increase in CypD level incubated for 8 hrs by Western blotting analysis; type: functional, cell-based; details: dose 5-20 nM
MDA-MB-231 [9] = experiment: Induction of apoptosis in human MDA-MB-231 cells assessed as effect on ANT level at 20 nM incubated for 8 hrs by Western blotting analysis; type: functional, cell-based
[10] = Toxicity in BALB/C mouse xenografted with human MDA-MB-231 cells assessed as change in body weight at 2.5 mg/kg, ip administered every 2 days measured after 3 weeks; type: organism-based; details: in vivo, 504 h
MDA-MB-231 [11] = experiment: Antiproliferative activity against human MDA-MB-231 cells assessed as inhibition of cell growth measured after 48 hrs in presence of 3,4-bis(phenylsulfonyl)-1,2,5-oxadiazole 2-oxide by MTT assay; type: functional, cell-based; details: MDA-MB-231, 48 h

SMILES | IC50 (MDA-MB-231 [1]) [nM] | IC50 (A549) [µM] | IC50 (HCT-116) [µM] | IC50 (MCF7) [µM] | other results
O=c1ccc2cc(O)c(OCCCCCCOc3no[n+]([O-])c3S(=O)(=O)c3ccccc3)cc2o1 | 120 | 12.5 | 2.69 | 5.3 | IC50 (MDA-MB-231 [2]): 130 nM; IC50 at 48 h [3]: 12.6 µM; Activity (MDA-MB-231 [4]): Active; IC50 at 48 h [5]: 5.73 µM; selectivity ratio [6]: 394; selectivity ratio [7]: 47.8
CCN(CC)c1ccc2cc(C(=O)OCCCCCCOc3no[n+]([O-])c3S(=O)(=O)c3ccccc3)c(=O)oc2c1 |  |  |  |  | Activity (MDA-MB-231 [8]): inactive; Activity (MDA-MB-231 [9]): inactive
O=c1ccc2cc(OCCCOc3no[n+]([O-])c3S(=O)(=O)c3ccccc3)c(OCCCOc3no[n+]([O-])c3S(=O)(=O)c3ccccc3)cc2o1 | 58 | 1.96 | 1.12 | 2.33 | 
O=c1ccc2cc(O)c(OCCCCOc3no[n+]([O-])c3S(=O)(=O)c3ccccc3)cc2o1 | 1990 | 11.8 | 5.02 | 8.71 | 
CCN(CC)c1ccc2cc(C(=O)OCCCOc3cc4ccc(=O)oc4cc3OCCCCCCOc3no[n+]([O-])c3S(=O)(=O)c3ccccc3)c(=O)oc2c1 | 53 | 2.26 | 3.26 | 1.06 | 
CCN(CC)c1ccc2cc(C(=O)OCCCCCCOc3cc4ccc(=O)oc4cc3OCCCCCCOc3no[n+]([O-])c3S(=O)(=O)c3ccccc3)c(=O)oc2c1 | 108 | 4.43 | 9.14 | 2.99 | 
O=c1ccc2cc(OCCCCCCOc3no[n+]([O-])c3S(=O)(=O)c3ccccc3)c(OCCCCCCOc3no[n+]([O-])c3S(=O)(=O)c3ccccc3)cc2o1 | 148 | 3.05 | 2.41 | 10.4 | 

Continued, in another order:

IC50 (MDA-MB-231 [1]) [nM] | IC50 (A549) [µM] | IC50 (HCT-116) [µM] | IC50 (MCF7) [µM] | SMILES | other results
2160 | 12.1 | 5.97 | 11.3 | O=c1ccc2cc(O)c(OCCCOc3no[n+]([O-])c3S(=O)(=O)c3ccccc3)cc2o1 | 
7910 |  |  |  | O=S(=O)(c1ccccc1)c1no[n+]([O-])c1S(=O)(=O)c1ccccc1 | 
53 | 1.61 | 3.75 | 2.44 | CCN(CC)c1ccc2cc(C(=O)OCCCCOc3cc4ccc(=O)oc4cc3OCCCCCCOc3no[n+]([O-])c3S(=O)(=O)c3ccccc3)c(=O)oc2c1 | 
 |  | 0.15 | 0.74 | COc1cccc2c1C(=O)c1c(O)c3c(c(O)c1C2=O)C[C@@](O)(C(=O)CO)C[C@@H]3O[C@H]1C[C@H](N)[C@H](O)[C@H](C)O1 [DOXORUBICIN] | IC50 at 48 h [3]: 0.74 µM; IC50 at 48 h [5]: 0.6 µM; Activity [10]: Non-Toxic
2160 | 12.8 | 4.28 | 7.94 | O=c1ccc2cc(O)c(OCCCCCOc3no[n+]([O-])c3S(=O)(=O)c3ccccc3)cc2o1 | 
100 | 2.82 | 3.1 | 2.12 | O=c1ccc2cc(OCCCCCOc3no[n+]([O-])c3S(=O)(=O)c3ccccc3)c(OCCCCCOc3no[n+]([O-])c3S(=O)(=O)c3ccccc3)cc2o1 | 
42 | 1.21 | 2.03 | 3.7 | O=c1ccc2cc(OCCCCOc3no[n+]([O-])c3S(=O)(=O)c3ccccc3)c(OCCCCOc3no[n+]([O-])c3S(=O)(=O)c3ccccc3)cc2o1 | IC50 at 48 h [3]: 6.44 µM; Activity (MDA-MB-231 [4]): Active; IC50 at 48 h [5]: 5.64 µM; selectivity ratio [6]: 153; selectivity ratio [7]: 134
> 50000 | > 50 | > 50 | > 50 | O=c1ccc2cc(O)c(O)cc2o1 [ESCULETIN] | IC50 (MDA-MB-231 [11]): 7.47 µM

— ChEMBL document CHEMBL5321282, “Design, Synthesis, and Biological Evaluation of Esculetin-Furoxan-DEAC Ternary Hybrids for Anti-Triple Negative Breast Cancer” (J Med Chem, 2023)
